Literature values as cited in patent publication US20220347170A1, “Method of Reducing Brow Ache” (priority 2021, published 2022).

Conditions: aceclidine alone; U.S. Pat. Nos. 9,089,562, 9,833,441 and 9,314,427

SMILES: CC(=O)OC1CN2CCC1CC2 (stereo not shown) [aceclidine]
- brow ache: significant brow ache
